Measurements as given in ChEMBL document CHEMBL1138846, “Synthesis of C2-C3'N-linked macrocyclic taxoids. Novel docetaxel analogues with high tubulin activity” (J Med Chem, 2004).
The source made the active and inactive calls. The calls are words filed in the database; no cut-off is given here.

How the values were obtained:
[1] = Concentration required to inhibit 50% of rate of microtubule disassembly; type: functional
KB = test: Concentration required for inhibition of 50% human […] KB cell line proliferation after 72 hr of incubation; type: functional, cell-based
[2] = Ratio of inhibitory concentration of compound against microtubule disassembly to that of inhibitory concentration of paclitaxel; type: functional
[3] = Ratio of inhibitory concentration of compound against microtubule disassembly to that of inhibitory concentration of paclitaxel; Inactive; type: functional
HCT-116 = test: Concentration required for inhibition of 50% human colon HCT 116 cell line proliferation after 72 hr of incubation; type: functional, cell-based; conditions: HCT-116, 72 h
MCF7 = test: Concentration required for inhibition of 50% human breast MCF 7 cell line proliferation after 72 hr of incubation; type: functional, cell-based; conditions: MCF7, 72 h

## CC(=O)O[C@H]1C(=O)[C@@]2(C)[C@H]([C@H](OC(=O)c3ccccc3)[C@]3(O)C[C@H](OC(=O)[C@H](O)[C@@H](NC(=O)c4ccccc4)c4ccccc4)C(C)=C1C3(C)C)[C@]1(OC(C)=O)CO[C@@H]1C[C@@H]2O [PACLITAXEL]
[1]
  IC50: 1000 nM

## C=CCCCCC(=O)N[C@@H](c1ccccc1)[C@@H](O)C(=O)O[C@H]1C[C@@]2(O)[C@@H](OC(=O)c3cccc(CC=C)c3)C3[C@](C)(C(=O)[C@H](O)C(=C1C)C2(C)C)[C@@H](O)C[C@H]1OC[C@@]31OC(C)=O (stereo partly drawn)
KB
  IC50: 10 nM
[2]
  Ratio: 1

## C=CCCCCC(=O)N[C@@H](c1ccccc1)[C@@H](O)C(=O)O[C@H]1C[C@@]2(O)[C@@H](OC(=O)c3ccc(CC=C)cc3)C3[C@](C)(C(=O)[C@H](O)C(=C1C)C2(C)C)[C@@H](O)C[C@H]1OC[C@@]31OC(C)=O (stereo partly drawn)
KB
  IC50: 40 nM
[3]
  Ratio: inactive

## C=CCCCCC(=O)N[C@@H](c1ccccc1)[C@@H](O)C(=O)O[C@H]1C[C@@]2(O)[C@@H](OC(=O)c3ccccc3CC=C)C3[C@](C)(C(=O)[C@H](O)C(=C1C)C2(C)C)[C@@H](O)C[C@H]1OC[C@@]31OC(C)=O (stereo partly drawn)
HCT-116
  IC50: 10 nM
KB
  IC50: 3.2 nM
[2]
  Ratio: 1.2
MCF7
  IC50: 9 nM

## CC(=O)O[C@@]12CO[C@@H]1C[C@H](O)[C@@]1(C)C(=O)[C@H](O)C3=C(C)[C@@H]4C[C@@](O)([C@@H](OC(=O)c5ccc(cc5)C/C=C\CCCCC(=O)N[C@@H](c5ccccc5)[C@@H](O)C(=O)O4)C12)C3(C)C (stereo partly drawn)
KB
  IC50: 280 nM
[3]
  Ratio: inactive

## CC(=O)O[C@@]12CO[C@@H]1C[C@H](O)[C@@]1(C)C(=O)[C@H](O)C3=C(C)[C@@H](OC(=O)[C@H](O)[C@@H](NC(=O)OC(C)(C)C)c4ccccc4)C[C@@](O)([C@@H](OC(=O)c4ccccc4)[C@H]21)C3(C)C [DOCETAXEL]
HCT-116
  IC50: 2.2 nM
KB
  IC50: 0.3 nM
[2]
  Ratio: 0.5
MCF7
  IC50: 1 nM

## CC(=O)O[C@@]12CO[C@@H]1C[C@H](O)[C@@]1(C)C(=O)[C@H](O)C3=C(C)[C@@H]4C[C@@](O)([C@@H](OC(=O)CCCC/C=C\CCCCC(=O)N[C@@H](c5ccccc5)[C@@H](O)C(=O)O4)C12)C3(C)C (stereo partly drawn)
HCT-116
  IC50: > 10000 nM
KB
  IC50: 8000 nM
[2]
  Ratio: 7.3
MCF7
  IC50: > 10000 nM

## CC(=O)O[C@@]12CO[C@@H]1C[C@H](O)[C@@]1(C)C(=O)[C@H](O)C3=C(C)[C@@H]4C[C@@](O)([C@@H](OC(=O)c5ccc(cc5)C/C=C/CCCC(=O)N[C@@H](c5ccccc5)[C@@H](O)C(=O)O4)C12)C3(C)C (stereo partly drawn)
KB
  IC50: 1600 nM
[3]
  Ratio: inactive

## CC(=O)O[C@@]12CO[C@@H]1C[C@H](O)[C@@]1(C)C(=O)[C@H](O)C3=C(C)[C@@H]4C[C@@](O)([C@@H](OC(=O)c5cccc(c5)C/C=C\CCCCC(=O)N[C@@H](c5ccccc5)[C@@H](O)C(=O)O4)C12)C3(C)C (stereo partly drawn)
HCT-116
  IC50: 8000 nM
KB
  IC50: 200 nM
[2]
  Ratio: 1.4
MCF7
  IC50: > 10000 nM

## CC(=O)O[C@@]12CO[C@@H]1C[C@H](O)[C@@]1(C)C(=O)[C@H](O)C3=C(C)[C@@H]4C[C@@](O)([C@@H](OC(=O)c5cccc(c5)C/C=C/CCCCC(=O)N[C@@H](c5ccccc5)[C@@H](O)C(=O)O4)C12)C3(C)C (stereo partly drawn)
HCT-116
  IC50: 700 nM
KB
  IC50: 70 nM
[2]
  Ratio: 1
MCF7
  IC50: 350 nM

## CC(=O)O[C@@]12CO[C@@H]1C[C@H](O)[C@@]1(C)C(=O)[C@H](O)C3=C(C)[C@@H]4C[C@@](O)([C@@H](OC(=O)c5ccccc5C/C=C/CCCCC(=O)N[C@@H](c5ccccc5)[C@@H](O)C(=O)O4)C12)C3(C)C (stereo partly drawn)
HCT-116
  IC50: 2400 nM
KB
  IC50: 700 nM
[2]
  Ratio: 6
MCF7
  IC50: 2100 nM
